pEC50: −log10 of the molar value.
Target: T1, human Cystic Fibrosis Transmembrane Conductance Regulator (CFTR) harboring the ΔF508 mutation (Homo sapiens, UniProt P13569, DEL508-508)
T1 construct: expressed in transfected cells; host or cells: H441 carcinoma line (G418 selection)
Assay: H441 cell Emax and EC50: HRP-tagged ΔF508-CFTR cell surface luminescence assay
Type: cell-based
Conditions: H441 cells expressing ΔF508-CFTR-HRP, 27° C., two nights; for pEC50: 15-point dose-response, top 24.5 μM; for Emax: NCI-H441, % of maximum VX809 signal
Text: Two cell lines were used, the H441 carcinoma line and the CFHBE41o-(41o-) human bronchial epithelial line. Both cell lines expressed human Cystic Fibrosis Transmembrane Conductance Regulator (CFTR) harboring the ΔF508 mutation and with an in-frame fusion in CFTR extracellular loop 4 of Horse Radish Peroxidase (HRP) under control of the CMV promoter. In the presence of the HRP tag, ΔF508-CFTR transported to the cell surface was detectable upon addition of an HRP substrate (Luminata Forte). Both cell types were cultivated at 37° C. with CO2.
For both cell types, the medium was changed every other day unless the culture was at low % confluence. Cells were used for the assays at ˜75% confluence.
To a polypropylene (PP) 384-well plate, 15 μls DMSO was added to all wells in columns 1-22 and 24 (low Control). 15 μls of 260 μM VX809 (Lumacaftor), Selleckchem S1565, was added to column 23 wells (high Control). 15 μls of 10 mM test compound or VX809 (control) were added to wells of row A. Serial dilutions of Row A compound were performed 2×15 μls in rows A through O (15-point).
A PP, 384-well plate containing the appropriate cell culture medium was prepared for each assay plate with 100 μls per well. For the doxycycline-induced 41o-cells, doxycycline for both the assay plate and the medium dilution plate was added at 0.0005 mg/ml to the medium.
Both cell lines were plated for the assay at 30 uls per 384-well at 3.4×10^e5 cells per ml (˜10K cells/well). H441 cells were plated on opaque, white, Corning plate 3704. 41o-cells were plated on collagen-coated opaque, white, Corning plate 356665. For 41o-cells, doxycycline was added to the medium.
Using FX (Beckman) protocol, 10 uls diluted compound or medium was added per well to the Assay Plate as: 2 μls DMSO Dilution plate well is diluted in 100 uls of the Medium Dilution Plate well, mixed, and 10 uls is transferred to the Assay Plate.
The final assay dilution series is 24.5, 12.3, 6.1, 3.1, 1.5, 0.8, 0.4, 0.2, 0.1, 0.05, 0.02, 0.01, 0.006, 0.003, 0.001 and 0 μM. The 41o-assay plates were incubated at 37° C. w/CO2, the H441 assay plates were incubated at 27° C. w/CO2, each overnight for two nights.
After being brought to room temperature, the assay plate liquid was removed. 30 μls of Luminata Forte (Millipore ELLUF0100) was added per well and incubated at room temperature for 10 min. The plates were then read on a Topcount, protocol LumiMatti (CPS, luminescence). The data was analyzed for % of maximum, maximum VX809 signal, and EC50 using Pearl and SPEED tools.

T1 sequence (P13569 with tags, fused parts or gaps DEL508-508): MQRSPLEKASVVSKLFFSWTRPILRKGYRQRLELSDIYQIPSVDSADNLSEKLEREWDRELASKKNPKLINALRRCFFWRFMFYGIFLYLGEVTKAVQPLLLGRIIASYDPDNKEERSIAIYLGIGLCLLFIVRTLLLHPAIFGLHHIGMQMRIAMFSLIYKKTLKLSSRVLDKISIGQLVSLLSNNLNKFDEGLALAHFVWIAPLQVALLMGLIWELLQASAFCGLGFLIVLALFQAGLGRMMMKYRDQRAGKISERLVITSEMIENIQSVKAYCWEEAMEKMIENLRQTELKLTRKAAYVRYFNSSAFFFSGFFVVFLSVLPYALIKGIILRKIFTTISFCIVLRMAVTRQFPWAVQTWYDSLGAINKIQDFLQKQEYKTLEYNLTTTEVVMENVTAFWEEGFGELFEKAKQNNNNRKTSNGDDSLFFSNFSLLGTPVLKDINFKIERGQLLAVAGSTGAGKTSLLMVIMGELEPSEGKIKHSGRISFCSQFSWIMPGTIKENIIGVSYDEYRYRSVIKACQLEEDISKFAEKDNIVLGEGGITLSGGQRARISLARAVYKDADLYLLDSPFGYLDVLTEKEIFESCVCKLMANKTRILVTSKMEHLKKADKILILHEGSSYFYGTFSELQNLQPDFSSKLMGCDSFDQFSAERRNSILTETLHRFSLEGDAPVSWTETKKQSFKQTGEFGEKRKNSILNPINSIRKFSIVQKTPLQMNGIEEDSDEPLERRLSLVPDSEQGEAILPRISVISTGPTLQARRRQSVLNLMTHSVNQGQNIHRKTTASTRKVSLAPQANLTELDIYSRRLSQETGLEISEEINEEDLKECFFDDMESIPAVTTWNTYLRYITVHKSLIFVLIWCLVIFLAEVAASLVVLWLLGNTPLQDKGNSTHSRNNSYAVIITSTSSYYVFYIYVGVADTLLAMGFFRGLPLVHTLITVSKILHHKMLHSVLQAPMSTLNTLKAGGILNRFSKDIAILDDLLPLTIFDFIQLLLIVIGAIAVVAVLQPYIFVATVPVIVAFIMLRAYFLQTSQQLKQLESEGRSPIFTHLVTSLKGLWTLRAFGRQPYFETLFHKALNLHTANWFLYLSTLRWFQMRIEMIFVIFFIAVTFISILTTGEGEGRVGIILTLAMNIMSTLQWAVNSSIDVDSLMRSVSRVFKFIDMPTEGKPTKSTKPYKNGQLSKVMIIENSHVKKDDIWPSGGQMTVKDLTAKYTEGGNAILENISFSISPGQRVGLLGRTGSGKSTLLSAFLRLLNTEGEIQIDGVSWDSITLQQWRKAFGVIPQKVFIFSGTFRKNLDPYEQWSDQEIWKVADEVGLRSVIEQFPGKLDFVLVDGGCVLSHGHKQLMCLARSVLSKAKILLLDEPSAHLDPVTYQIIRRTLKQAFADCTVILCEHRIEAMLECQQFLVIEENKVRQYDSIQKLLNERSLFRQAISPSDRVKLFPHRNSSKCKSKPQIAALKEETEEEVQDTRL

Row | Structure (SMILES) | pEC50 | Emax [%]
1 | O=C(N[C@H](C(=O)O)C12CC3CC(CC(C3)C1)C2)c1ccc2ccccc2c1OCc1ccc(OC(F)F)cc1 [compound 78] | ≤ 4.61 | 7.8
2 | O=C(N[C@H](C(=O)O)C12CC3CC(CC(C3)C1)C2)c1ccc2cc(O)ccc2c1OCc1ccc(C(F)(F)F)cc1 [compound 37] | 6.81 | 132
3 | COc1c(F)c(COc2c(C(=O)N[C@H](C(=O)O)C34CC5CC(CC(C5)C3)C4)ccc3ccccc23)c(F)c(F)c1C(F)(F)F [compound 86] | 6.28 | 24
4 | O=C(NC(C(=O)O)C12CC3CC(CC(O)(C3)C1)C2)c1ccc2ccccc2c1OCc1ccc(C(F)(F)F)cc1 (centres unmarked) [compound 79] | 5.99 | 137
5 | O=C(N[C@H](C(=O)O)C12CC3CC(CC(C3)C1)C2)c1ccc2ccccc2c1OCc1ccc(C(F)(F)C(F)(F)F)cc1 [compound 40] | 6.95 | 149
6 | O=C(N[C@H](C(=O)O)C12CC3CC(CC(C3)C1)C2)c1sc2cc(Cl)ccc2c1OCc1ccc(C(F)(F)F)cc1 [compound 32] | 6.40 | 105
7 | O=C(N[C@H](C(=O)O)C12CC3CC(CC(C3)C1)C2)c1ccc2ccccc2c1OCc1ccc(S(F)(F)(F)(F)F)cc1 [compound 47] | 6.35 | 148
8 | O=C(N[C@H](C(=O)O)C12CC3CC(CC(OCCO)(C3)C1)C2)c1ccc2ccccc2c1OCc1ccc(C(F)(F)F)cc1 [compound 20] | 6.11 | 144
9 | O=C(N[C@H](C(=O)O)C12CC3CC(CC(O)(C3)C1)C2)c1ccc2ccccc2c1OCc1ccc(OC(F)(F)F)cc1 [compound 35] | 5.95 | 141
10 | O=C(N[C@H](C(=O)O)C12CC3CC(CC(C3)C1)C2)c1ccc2cccnc2c1OCc1ccc(C(F)(F)F)cc1 [compound 41] | 6.33 | 173
11 | C[C@@H](OC12CC3CC(C1)CC([C@H](NC(=O)c1ccc4cc(F)ccc4c1OCc1ccc(C(F)(F)F)cc1)C(=O)O)(C3)C2)C(=O)O [compound 36] |  | 0.9
12 | CC12CC3(C)CC(C)(C1)CC(C(NC(=O)c1ccc4ccccc4c1OCC1CCCCC1)C(=O)O)(C2)C3 (centres unmarked) [compound 75] | 6.22 | 271
13 | Cc1ccc2ccc(C(=O)N[C@H](C(=O)O)C34CC5CC(CC(C5)C3)C4)c(OCc3ccc(C(F)(F)F)cc3)c2c1 [compound 18] | 5.66 | 370
14 | COC(=O)[C@@H](NC(=O)c1ccc2ccccc2c1OCc1ccc(C(F)(F)F)cc1)C12CC3CC(CC(O)(C3)C1)C2 [compound 14] | ≤ 4.61 | 29.9
15 | COc1cccc2c(OCc3ccc(C(F)(F)F)cc3)c(C(=O)N[C@H](C(=O)O)C34CC5CC(CC(C5)C3)C4)ccc12 [compound 12] | 6.15 | 154
16 | O=C(N[C@H](C(=O)O)C12CC3CC(CC(C3)C1)C2)c1ccc2cccnc2c1OCc1ccc(OC(F)(F)F)cc1 [compound 84] | 6.18 | 149
17 | CCOC(=O)[C@H](C)OC12CC3CC(C1)CC([C@H](NC(=O)c1ccc4cc(F)ccc4c1OCc1ccc(C(F)(F)F)cc1)C(=O)O)(C3)C2 [compound 87] | 6.54 | 96.2
18 | CCOC12CC3CC(C1)CC([C@H](NC(=O)c1ccc4ccccc4c1OCc1ccc(C(F)(F)F)cc1)C(=O)O)(C3)C2 [compound 27] | 6.82 | 215
19 | O=C(N[C@H](C(=O)O)[C@]12C[C@H]3C[C@](O)(C[C@](Cl)(C3)C1)C2)c1ccc2ccccc2c1OCc1ccc(OC(F)(F)F)cc1 [compound 80, (S)-2-((1S,3S,5R,7S)-3-chloro-5-hydroxyadamantan-1-yl)-2-(1-((4-(trifluoromethoxy)benzyl)oxy)-2-naphthamido)acetic acid] | 7.11 | 184
20 | O=C(N[C@H](C(=O)O)C12CC3CC(CC(O)(C3)C1)C2)c1ccc2cc(F)ccc2c1OCc1ccc(OC(F)(F)F)cc1 [compound 46] |  | 3.8

Results, then the compound that gave them:

Row | pEC50 | Emax [%] | Structure (SMILES)
21 | 6.61 | 133 | O=C(N[C@H](C(=O)O)C12CC3CC(CC(C3)C1)C2)c1ccc2occc2c1OCc1ccc(C(F)(F)F)cc1 [compound 128, (2S)-2-(1-adamantyl)-2-[[4-[[4-(trifluoromethyl)phenyl]methoxy]benzofuran-5-carbonyl]amino]acetic acid]
22 |  | -5.4 | O=C(O)[C@@H](N1CN(Cc2ccc(C(F)(F)F)cc2)c2ccccc2C1=O)C12CC3CC(CC(C3)C1)C2 [compound 135, (2S)-2-(1-adamantyl)-2-[4-oxo-1-[[4-(trifluoromethyl)phenyl]methyl]-2H-quinazolin-3-yl]acetic acid]
23 | 6.44 | 190 | O=C(N[C@H](C(=O)O)C12CC3CC(CC(C3)C1)C2)c1ccc2sccc2c1OCc1ccc(C(F)(F)F)cc1 [compound 112, (2S)-2-(1-adamantyl)-2-[[4-[[4-(trifluoromethyl)phenyl]methoxy]benzothiophene-5-carbonyl]amino]acetic acid]
24 | 6.42 | 173 | O=C(N[C@H](C(=O)O)C12CC3CC(CC(C3)C1)C2)c1ccc2sccc2c1OCc1ccc(Cl)c(Cl)c1 [compound 110, (2S)-2-(1-adamantyl)-2-[[4-[(3,4-dichlorophenyl)methoxy]benzothiophene-5-carbonyl]amino]acetic acid]
25 | 6.22 | 184 | O=C(N[C@H](C(=O)O)C12CC3CC(CC(C3)C1)C2)c1ccc2sccc2c1OCc1nc2ccccc2s1 [compound 113, (2S)-2-(1-adamantyl)-2-[[4-(1,3-benzothiazol-2-ylmethoxy)benzothiophene-5-carbonyl]amino]acetic acid]
26 | 5.82 | 171 | O=C(N[C@H](C(=O)O)C12CC3CC(CC(C3)C1)C2)c1ccc2occc2c1OCc1nc2ccccc2s1 [compound 122, (2S)-2-(1-adamantyl)-2-[[4-(1,3-benzothiazol-2-ylmethoxy)benzofuran-5-carbonyl]amino]acetic acid]
27 | 5.91 | 228 | O=C(N[C@H](C(=O)O)C12CC3CC(CC(C3)C1)C2)c1ccc2sccc2c1OCC1CCCCC1 [compound 104, (2S)-2-(1-adamantyl)-2-[[4-(cyclohexylmethoxy)benzothiophene-5-carbonyl]amino]acetic acid]
28 | 5.85 | 21.7 | O=C(N[C@H](C(=O)O)C12CC3CC(CC(O)(C3)C1)C2)c1ccc2ccccc2c1NCc1ccc(SC(F)(F)F)cc1 [compound 131, (2S)-2-(3-hydroxy-1-adamantyl)-2-[[1-[[4-(trifluoromethylsulfanyl)phenyl]methylamino]naphthalene-2-carbonyl]amino]acetic acid]
29 | 5.75 | 212 | O=C(N[C@H](C(=O)O)C12CC3CC(CC(C3)C1)C2)c1ccc2occc2c1OCC1CCCCC1 [compound 116, (2S)-2-(1-adamantyl)-2-[[4-(cyclohexylmethoxy)benzofuran-5-carbonyl]amino]acetic acid]
30 | 6.32 | 60.6 | O=C(N[C@H](C(=O)O)C12CC3CC(Cl)(CC(Cl)(C3)C1)C2)c1ccc2ccccc2c1NCc1ccc(SC(F)(F)F)cc1 [compound 130, (2S)-2-(3,5-dichloro-1-adamantyl)-2-[[1-[[4-(trifluoromethylsulfanyl)phenyl]methylamino]naphthalene-2-carbonyl]amino]acetic acid]
31 | 6.33 | 119 | O=C(N[C@H](C(=O)O)C12CC3CC(CC(C3)C1)C2)c1ccc2sccc2c1OCc1ccc(S(F)(F)(F)(F)F)cc1 [compound 114]
32 |  | -1.3 | NC12CC3CC(C1)CC([C@H](NC(=O)c1ccc4ccccc4c1OCc1ccc(C(F)(F)F)cc1)C(=O)O)(C3)C2 [compound 92]
33 | 6.33 | 116 | O=C(N[C@H](C(=O)O)C12CC3CC(CC(C3)C1)C2)c1ccc2occc2c1OCc1ccc(OC(F)(F)F)cc1 [compound 124, (2S)-2-(1-adamantyl)-2-[[4-[[4-(trifluoromethoxy)phenyl]methoxy]benzofuran-5-carbonyl]amino]acetic acid]

Source: US12637414B2, “Arylamides and methods of use thereof” (Genzyme Corporation, priority 2019, dated 2026)
